Values quoted from earlier work as cited in patent US4867987A, “Pharmaceutical product for the sustained release of ibuprofen” (priority 1986, dated 1989).

CC(C)Cc1ccc(C(C)C(=O)O)cc1 (stereo not shown) [ibuprofen, 2-(4-isobutylphenyl)propionic acid]
complete elimination of ibuprofen and its metabolites after the last administration: ≤ 24 h
